This assay concerns cellular pERK in PC-9 cells (EGFR Ex19Del). The experiment in a line: Potency assay: pERK (AlphaLISA SureFire Ultra p-ERK1/2) in PC-9 cells. The format is cell-based. To be noted: read-out: SOS1 pERK IC50. A general note: Alpha assays give light when donor and acceptor beads are brought close together.
Where [1] appears, read: Homo sapiens, PC-9, 1 h, PC-9 cells (EGFR Ex19Del), 1 hour incubation, AlphaLISA SureFire Ultra p-ERK1/2.
Where [2] appears, read: PC-9 cells (EGFR Ex19Del), 1 hour incubation, AlphaLISA SureFire Ultra p-ERK1/2.

Where two headings read alike, the source gives them in different places.

In general, IC50 refers to the concentration at which inhibition is half-maximal. As for `COC1(c2cc3c(N[C@H](C)c4cccc(C(F)F)c4F)ncnc3n(C)c2=O)CCN(S(C)(=O)=O)CC1` [Example 32-24], the IC50 under setting [1] amounted to 0.0697 µM.
On to `C[C@@H](Nc1ncnc2c1cc(C(=O)N1CC3(COC3)C1)c(=O)n2C)c1cccc(C(F)F)c1F` [Example 26-4], for which, under setting [1], the half-inhibitory concentration (IC50) is 0.423 µM.
Consider `CC(=O)N1CCC(c2cc3c(N[C@H](C)c4cc(C(F)F)cc(C5(F)CNC5)c4)ncnc3n(C)c2=O)CC1` [Example 43, 6-(1-acetyl-4-piperidyl)-4-[[(1R)-1-[3-(difluoromethyl)-5-(3-fluoroazetidin-3-yl)phenyl]ethyl]amino]-8-methyl-pyrido[2,3-d]pyrimidin-7-one], for which, under setting [1], the concentration for half-maximal inhibition (IC50) was greater than 7.29 µM.
Still for that read-out and setting: to `C[C@@H](Nc1ncnc2c1cc(C1(O)CCS(=O)(=O)CC1)c(=O)n2C)c1cccc(C(F)F)c1F` [Example 28, 4-(4-{[(1R)-1-[3-(difluoromethyl)-2-fluorophenyl]-ethyl]amino}-8-methyl-7-oxo-7H,8H-pyrido[2,3-d]pyrimidin-6-yl)-4-hydroxy-1λ^6-thiane-1,1-dione] belongs 0.0937 µM; to `C[C@@H](Nc1ncnc2c1cc(-c1ccncc1)c(=O)n2C)c1cccc(C(F)F)c1F` [Example 21-14], 0.119 µM; to `CO[C@]1(c2cc3c(N[C@H](C)c4cccc(C(F)F)c4F)ncnc3n(C)c2=O)CCN(C(C)=O)C(C)(C)C1` [Example 32-52], 0.0181 µM.
As to `COC1(c2cc3c(N[C@H](C)c4cccc(C(F)F)c4F)ncnc3n(C)c2=O)C2CCC1CN(C(C)=O)C2` (stereo partly drawn) [Example 32-22], the IC50 under setting [1] worked out at 0.18 µM.
In the case of `CC(=O)N1CCCC(C#N)(c2cc3c(N[C@H](C)c4cccc(C(F)F)c4F)ncnc3n(C)c2=O)CC1` (stereo partly drawn) [Example 36-9], under setting [1], the IC50 came to 0.0869 µM.
Still for that read-out and setting: to `COC1(c2cc3c(N[C@H](C)c4cccc(C(F)F)c4F)ncnc3n(C)c2=O)CCNC1` (stereo partly drawn) [Example 32-55] belongs 0.0816 µM.
In the case of `C[C@@H](Nc1ncnc2c1cc(C1(C#N)CCP(C)(=O)CC1)c(=O)n2C)c1cccc(C(F)F)c1F` (stereo partly drawn) [Example 36-13], under setting [2], the IC50 was 0.0812 µM.
Take `Cc1nc(N[C@H](C)c2cccc(C(F)F)c2F)c2cc(N3CCOCC3)c(=O)n(C)c2n1` [Example 2-1]: the IC50 under setting [1] was determined as 0.112 µM.
With `COC1(c2cc3c(N[C@H](C)c4cccc(C(F)F)c4F)ncnc3n(C)c2=O)CN(C(C)=O)C1` [Example 32-7], the IC50 under setting [1] turned out to be 0.0714 µM.
The same measure, in the same setting: with `COC1(c2cc3c(N[C@H](C)c4cccc(C(F)F)c4F)ncnc3n(C)c2=O)CN(C)C1` [Example 32-8] the figure was 0.186 µM; with `CC(=O)N1CC[C@](C#N)(c2cc3c(N[C@H](C)c4cccc(C(F)F)c4F)ncnc3n(C)c2=O)C1` [Example 36-10], 0.044 µM.
Same read-out and setting: to `C[C@@H](Nc1ncnc2c1cc(C1CCS(=N)(=O)CC1)c(=O)n2C)c1cccc(C(F)F)c1F` (stereo partly drawn) [Example 67, 4-[[(1R)-1-[3-(difluoromethyl)-2-fluoro-phenyl]ethyl]amino]-6-(1-imino-1-oxo-thian-4-yl)-8-methyl-pyrido[2,3-d]pyrimidin-7-one] belongs 0.0161 µM.
With `C[C@@H](Nc1ncnc2c1cc(C1(F)CCC3(CC1)CS(=O)(=NC1CC1)C3)c(=O)n2C)c1cccc(C(F)F)c1F` (single isomer, unassigned) [Example 56-2], the IC50 under setting [2] came out at 0.294 µM.
Regarding `C[C@@H](Nc1ncnc2c1cc(C1=CCN(CC(F)(F)F)CC1)c(=O)n2C)c1cccc(C(F)F)c1F` [Example 1-27], under setting [1], the concentration for half-maximal inhibition (IC50) amounted to 0.313 µM.
Consider `C[C@@H](Nc1ncnc2c1cc(-c1ccccc1)c(=O)n2C)c1cccc(C(F)F)c1F` [Example 21-13], for which the IC50 under setting [1] was 0.486 µM.
Regarding `C[C@@H](Nc1ncnc2c1cc(C13CCOCC1C3)c(=O)n2C)c1cccc(C(F)F)c1F` (single isomer, unassigned) [Example 54-3], under setting [2], the 50% inhibitory concentration (IC50) was 0.376 µM.
In the case of `Cc1nc(N[C@H](C)c2cccc(C(F)(F)CO)c2)c2cc(C3=CCOCC3)c(=O)n(C)c2n1` [Example 3, (R)-4-((1-(3-(1,1-difluoro-2-hydroxyethyl)phenyl)ethyl)amino)-6-(3,6-dihydro-2H-pyran-4-yl)-2,8-dimethylpyrido[2,3-d]pyrimidin-7(8H)-one], under setting [1], the IC50 was found to be 0.0794 µM.
Still for that read-out and setting: with `CN=S1(=O)CCC(F)(c2cc3c(N[C@H](C)c4cccc(C(F)F)c4F)ncnc3n(C)c2=O)CC1` (single isomer, unassigned) [Example 51] the figure was 0.0411 µM.
For the compound `COC1(c2cc3c(N[C@H](C)c4cccc(C(F)F)c4F)ncnc3n(C)c2=O)CCCS(=O)(=O)CC1` (stereo partly drawn) [Example 32-34], under setting [2], the 50% inhibitory concentration (IC50) was determined as 0.0711 µM.
As for `COC1(c2cc3c(N[C@H](C)c4cccc(C(F)F)c4F)ncnc3n(C)c2=O)CC2CN(C(C)=O)C2C1` (stereo partly drawn) [Example 32-36], the IC50 under setting [1] was determined as 0.0931 µM.
For `Cc1c(C(F)F)cccc1[C@@H](C)Nc1ncnc2c1cc(C1CCS(=O)(=O)CC1)c(=O)n2C` [Example 33-5], under setting [1], the IC50 is 0.0412 µM.
As for `C[C@@H](Nc1ncnc2c1cc(C1(C#N)CCS(=O)(=NC3CC3)CC1)c(=O)n2C)c1cccc(C(F)F)c1F` (single isomer, unassigned) [Example 58], the half-inhibitory concentration (IC50) under setting [2] is 0.271 µM.
Consider `COC1(c2cc3c(N[C@H](C)c4cccc(C(F)F)c4F)ncnc3n(C)c2=O)C[C@H](C)N(C(C)=O)C1` (stereo partly drawn) [Example 32-38], for which the concentration for half-maximal inhibition (IC50) under setting [1] stood at 0.172 µM.
Regarding `C[C@@H](Nc1ncnc2c1cc(C1CCP(C)(=O)CC1)c(=O)n2C)c1cccc(C(F)F)c1F` (stereo partly drawn) [Example 33-22], the IC50 under setting [2] came out at 1.2 µM.
As for `COc1ccc(COC2(c3cc4c(N[C@H](C)c5cccc(C(F)F)c5F)ncnc4n(C)c3=O)CC2)cc1` [Example 61, 4-[[(1R)-1-[3-(difluoromethyl)-2-fluoro-phenyl]ethyl]amino]-6-[1-[(4-methoxyphenyl)methoxy]cyclopropyl]-8-methyl-pyrido[2,3-d]pyrimidin-7-one], the IC50 under setting [1] was found to be 0.647 µM.
Consider `C[C@@H](Nc1ncnc2c1cc(C1CCS(=O)(=O)C1)c(=O)n2C)c1cccc(C(F)F)c1F` (stereo partly drawn) [Example 33-21], for which, under setting [2], the half-inhibitory concentration (IC50) amounted to 0.0522 µM.
For the compound `C[C@@H](Nc1ncnc2c1cc(C1(N)CCOCC1)c(=O)n2C)c1cccc(C(F)F)c1F` [Example 31, 6-(4-aminooxan-4-yl)-4-{[(1R)-1-[3-(difluoromethyl)-2-fluorophenyl]ethyl]amino}-8-methyl-7H,8H-pyrido-[2,3-d]pyrimidin-7-one], under setting [1], the IC50 is 0.0145 µM.
Turning to `Cc1nc(N[C@H](C)c2cccc(C(F)F)c2F)c2cc(C3(O)CCN(C)CC3)c(=O)n(C)c2n1` [Example 28-2], the IC50 (Homo sapiens, PC-9, 1 h) came to 0.572 µM.
In the case of `Cc1nc(N[C@H](C)c2cc(N)cc(C(F)(F)F)c2)c2cc(C3CCNCC3)c(=O)[nH]c2n1` [Example 8, (R)-4-((1-(3-amino-5-(trifluoromethyl)phenyl)ethyl)amino)-2-methyl-6-(piperidin-4-yl)pyrido[2,3-d]pyrimidin-7(8H)-one], the IC50 under setting [1] was found to be 2.13 µM.
In the case of `C[C@@H](Nc1ncnc2c1cc(C1CCS(=N)(=O)CC1)c(=O)n2C)c1cccc(C(F)F)c1F` (stereo partly drawn) [Example 35, (R)-4-((1-(3-(difluoromethyl)-2-fluorophenyl)ethyl)amino)-6-(1-imino-1-oxidohexahydro-1λ^6-thiopyran-4-yl)-8-methylpyrido[2,3-d]pyrimidin-7(8H)-one], the IC50 under setting [2] was 0.127 µM.
Turning to `COC1(c2cc3c(N[C@H](C)c4cccc(C(F)F)c4F)ncnc3n(C)c2=O)CC2(CCN(C(C)=O)C2)C1` (stereo partly drawn) [Example 32-21], the half-inhibitory concentration (IC50) under setting [1] is 0.393 µM.
Consider `COC1(c2cc3c(N[C@H](C)c4cccc(C(F)F)c4F)nc(C)nc3n(C)c2=O)CC2(CN(C(C)=O)C2)C1` [Example 32-26], for which, under setting [1], the 50% inhibitory concentration (IC50) worked out at 0.0418 µM.
Turning to `C[C@@H](Nc1ncnc2c1cc(C(=O)N1CC3COCC31)c(=O)n2C)c1cccc(C(F)F)c1F` (stereo partly drawn) [Example 26-5], the IC50 under setting [1] turned out to be 0.396 µM.
The same measure, in the same setting: with `COC1(c2cc3c(N[C@H](C)c4cccc(C(F)F)c4F)nc(C)nc3n(C)c2=O)CCN(C(C)=O)C1` (stereo partly drawn) [Example 32-58] the figure was 0.0133 µM; with `COC1(c2cc3c(N[C@H](C)c4cccc(C(F)F)c4F)ncnc3n(C)c2=O)CCN(S(C)(=O)=O)C1` (stereo partly drawn) [Example 32-6], 0.0391 µM.
On the same count and under the same terms, with `CCC1(O)CN(C(=O)c2cc3c(N[C@H](C)c4cccc(C(F)F)c4F)ncnc3n(C)c2=O)C1` [Example 26-8] the figure was 0.252 µM.
On to `CC(=O)N1CCC(C#N)(c2cc3c(N[C@H](C)c4cccc(C(F)F)c4F)ncnc3n(C)c2=O)C1` (stereo partly drawn) [Example 36-5], for which the IC50 under setting [1] came out at 0.124 µM.
Still for that read-out and setting: with `C[C@@H](Nc1ncnc2c1cc(N1CCOCC1)c(=O)n2C)c1cccc(C(F)(F)CO)c1` [Example 2, (R)-4-((1-(3-(1,1-difluoro-2-hydroxyethyl)phenyl)ethyl)amino)-8-methyl-6-morpholinopyrido[2,3-d]pyrimidin-7(8H)-one] the figure was 0.0598 µM; with `COn1c(=O)c(C2CCS(=O)(=O)CC2)cc2c(N[C@H](C)c3cccc(C(F)F)c3F)ncnc21` [Example 53, 4-(4-{[(1R)-1-[3-(difluoromethyl)-2-fluorophenyl]ethyl]amino}-8-methoxy-7-oxo-7H,8H-pyrido[2,3-d]pyrimidin-6-yl)-1λ^6-thiane-1,1-dione], 0.0367 µM.
With `COC1(c2cc3c(N[C@H](C)c4cccc(C(F)F)c4F)ncnc3n(C)c2=O)CCS(=O)(=O)C(C)C1` (stereo partly drawn) [Example 32-66], under setting [2], the concentration for half-maximal inhibition (IC50) amounted to 0.127 µM.
With `COC1(c2cc3c(N[C@H](C)c4cccc(C(F)F)c4F)ncnc3n(C)c2=O)CCS(=N)(=O)CC1` (single isomer, unassigned) [Example 50], under setting [2], the IC50 amounted to 0.112 µM.
For the compound `CC1CN(C(=O)c2cc3c(N[C@H](C)c4cccc(C(F)F)c4F)ncnc3n(C)c2=O)C(C)CO1` (stereo partly drawn) [Example 26-23], the IC50 under setting [1] was 0.275 µM.
Same read-out and setting: to `C[C@@H](Nc1ncnc2c1cc(C(=O)N1CC3(CCOCC3)C1)c(=O)n2C)c1cccc(C(F)F)c1F` [Example 26-33] belongs 0.152 µM.
The same measure, in the same setting: with `C[C@@H](Nc1ncnc2c1cc(C1(F)CCS(=N)(=O)CC1)c(=O)n2C)c1cccc(C(F)F)c1F` (stereo partly drawn) [Example 29-14] the figure was 0.0355 µM; with `C[C@@H](Nc1ncnc2c1cc(C1(F)CCS(=O)(=NC3CC3)CC1)c(=O)n2C)c1cccc2c1OCC2(F)F` (stereo partly drawn) [Example 56-4], 0.05 µM.

The values are drawn from patent US11168102B1, “Bicyclic heteroaryl compounds and uses thereof” (Revolution Medicines, Inc., priority 2019, dated 2021).
